Source: US20080181961A1, “AMORPHOUS OXCARBAZEPINE AND THE PRODUCTION THEREOF” (ISP INVESTMENTS, INC., priority 2007, published 2008)

Assay: Aqueous release, USP apparatus II (paddles), water with 6% Cremophor EL (sink conditions)
Type: physicochemical
Settings: 37° C., 100 rpm to 60 minutes then 200 rpm for 15 minutes, 600 mg dose, FIG. 2
Experimental: Dissolution profiles can be determined using USP apparatus II (paddles) (VK 7010®, Varian Inc.), with a bath temperature of 37° C. and a paddle speed of 100 rpm for 60 minutes, followed by a paddle speed of 200 rpm for an additional 15 minutes.
The aqueous release of the spray dried powder was measured using USP apparatus II (paddles) at 37° C. in water with 6% Cremophor EL. The paddle speed was 100 rpm for the first 60 minutes, and then the paddle speed was increased to 200 rpm for an additional 15 minutes. A dose equivalent to 600 mg oxcarbazepine was filled into hard gelatin capsules (Qualicaps, Shionogi). This media creates sink conditions for the tested dose. • 5.
The release profile of this spray dried product was measured using the same dissolution method of Example 1, that is, in media that creates sink conditions for the tested dose. • 5.

NC(=O)N1c2ccccc2CC(=O)c2ccccc21 [crystalline oxcarbazepine, 10,11-dihydro-10-oxo-5H-dibenz[b,f]azepine-5-carboxamide]
oxcarbazepine release after the first 15 minutes: remained essentially constant
